Read-outs that look alike come from different tables or passages of the source.
What was measured:
[1] = tested on: MCF-7 human breast cancer cell line; conditions: cited from earlier work
isolated HER2 = isolated HER2 (Homo sapiens, UniProt P04626); assay: HER2 inhibition assay, radiometric protein kinase assay (33PanQinase Activity Assay); format: biochemical; conditions: isolated HER2, radiometric assay, 10 concentrations in singlicate
Method: The IC50 profile of the target compounds was determined using isolated HER2. IC50 values were measured by testing 10 concentrations (1 × 10 ^−4 M to 3 × 10 ^−9 M) of each compound in singlicate. A radiometric protein kinase assay (33PanQinase® Activity Assay) was used for measuring the kinase activity of HER2. The assay was performed in 96-well FlashPlatesTM from PerkinElmer (Boston, MA) in a 50 µl reaction volume. […] The reaction cocktails were incubated at 30 °C for 60 min. The reaction was halted with 50 µl of 2% (v/v) H3PO4, plates were aspirated and washed two times with 200 µl 0.9% (w/v) NaCl. Incorporation of ^33Pi was determined with a microplate scintillation counter (Microbeta, Wallac, Waltham, MA).
Human epidermal growth factor receptor 2 (HER2) is overexpressed in about 20% of all breast cancers. […] This prompted us to evaluated compounds 7–9 for their in vitro HER2 inhibitory effect. The IC50 profile of the target compounds was determined against isolated HER2 using a radiometric assay (Table 1).

[2] = tested on: SKBR3 human breast cancer cell line; set-up: method as in PMID 24946763; conditions: mean ± SD; cited from earlier work
[3] = tested on: A-375 human melanoma cancer cell line; assay: Proliferation assay (sulphorhodamine-B) in A-375; format: cell-based; conditions: 72 h of treatment, mean ± SD, read-out: IC50 A375
Method: MCF-7, HCT-116, A-375 and SKBR cells were grown at 37 °C in an atmosphere containing 5% CO2, with Dulbecco’s modified Eagle Medium (DMEM) (Gibco, Grand Island, NY) supplemented with 10% heat-inactivated foetal bovine serum (FBS) (Gibco), 2% L-glutamine, 2.7% sodium bicarbonate, 1% Hepes buffer, 40 mg/L gentamicin and 500 mg/L ampicillin.
Compounds were dissolved in DMSO and stored at −20 °C. For each experiment, the stock solutions were further diluted in medium to obtain the desired concentrations. The final solvent concentration in cell culture was ≤ 0.1% v/v of DMSO, a concentration without any effect on cell replication. Parallel cultures of MCF-7, HCT-116, A375 and SKBR-3 cells in medium with DMSO were used as controls.
The effect of the compounds on cell viability was assessed using the sulphorhodamine-B colorimetric assay. Cells suspension (1 × 10^3 cells/well) were seeded onto 24-well plates and incubated for 24 h. The cells were then treated with different concentrations of drugs in their respective culture medium and maintained with the treatment for 3 days. Three days later, wells were aspirated and fresh medium and drug were added. Then cell cultures were maintained for 3 additional days. Thereafter, a Titertek Multiscan (Flow, Irvine, CA) at 492 nm was used. The linearity of the SRB assay was evaluated with a cell number for each cell stock before each cell growth experiment. The IC50 values were calculated from semi-logarithmic dose–response curves by linear interpolation. All the experiments were plated in triplicate wells and were carried out twice.
We then investigated the effects of the target compounds on cell proliferation on the human breast cancer cell lines MCF-7 and SKBR-3, the human colon carcinoma cell line HCT-116 and the human malignant melanoma cell line A-375. The antiproliferative activity of 7–9 was evaluated using sulphorhodamine-B colorimetric assay after 72 h of treatment (Table 3).
All experiments were conducted in duplicate and gave similar results. The data are mean ± SD of three independent determinations. MCF-7: human breast cancer cell line; SKBR3: human breast cancer cell line; HCT-116: human colon cancer cell line and A-375: human melanoma cancer cell line.

[4] = tested on: HCT-116 human colon cancer cell line; set-up: method as in PMID 21126804; conditions: mean ± SD; cited from earlier work

isolated HER2, sequence (P04626 23-1255): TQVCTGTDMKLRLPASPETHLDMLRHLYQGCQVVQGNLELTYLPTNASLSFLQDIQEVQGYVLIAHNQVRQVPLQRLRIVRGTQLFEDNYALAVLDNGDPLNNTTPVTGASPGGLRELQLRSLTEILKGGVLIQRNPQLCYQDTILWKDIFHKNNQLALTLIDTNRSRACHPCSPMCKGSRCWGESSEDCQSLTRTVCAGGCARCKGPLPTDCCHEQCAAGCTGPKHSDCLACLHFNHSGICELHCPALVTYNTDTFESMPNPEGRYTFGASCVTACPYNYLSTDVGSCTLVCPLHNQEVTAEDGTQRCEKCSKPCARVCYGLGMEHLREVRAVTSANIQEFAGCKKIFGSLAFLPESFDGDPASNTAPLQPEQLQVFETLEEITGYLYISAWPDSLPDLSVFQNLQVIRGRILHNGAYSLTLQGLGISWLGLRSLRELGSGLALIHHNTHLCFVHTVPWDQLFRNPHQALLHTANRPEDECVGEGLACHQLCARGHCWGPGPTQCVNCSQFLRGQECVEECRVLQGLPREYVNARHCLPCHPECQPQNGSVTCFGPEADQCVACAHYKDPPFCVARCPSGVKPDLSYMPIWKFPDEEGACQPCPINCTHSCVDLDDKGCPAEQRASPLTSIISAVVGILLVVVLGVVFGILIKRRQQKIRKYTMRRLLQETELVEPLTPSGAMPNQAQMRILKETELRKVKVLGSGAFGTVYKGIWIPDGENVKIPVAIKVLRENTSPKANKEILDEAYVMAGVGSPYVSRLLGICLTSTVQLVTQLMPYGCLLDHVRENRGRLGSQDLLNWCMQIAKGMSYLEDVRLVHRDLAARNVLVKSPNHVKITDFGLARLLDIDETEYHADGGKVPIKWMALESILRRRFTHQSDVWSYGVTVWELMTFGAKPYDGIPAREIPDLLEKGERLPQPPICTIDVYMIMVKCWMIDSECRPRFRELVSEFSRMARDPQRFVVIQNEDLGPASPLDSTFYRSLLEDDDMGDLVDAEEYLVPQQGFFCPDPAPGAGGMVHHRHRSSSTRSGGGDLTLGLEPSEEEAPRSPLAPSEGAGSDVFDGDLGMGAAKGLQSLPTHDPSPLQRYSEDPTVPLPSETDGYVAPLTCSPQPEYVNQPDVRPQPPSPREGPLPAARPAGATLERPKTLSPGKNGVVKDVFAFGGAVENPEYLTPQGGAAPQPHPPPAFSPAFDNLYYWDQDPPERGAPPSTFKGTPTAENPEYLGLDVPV

SMILES: O=[N+]([O-])c1ccc(S(=O)(=O)N2CC(n3cnc4c(Cl)nc(Cl)nc43)OCc3ccccc32)cc1 (racemic) [Compound 3, (RS)-2,6-dichloro-9-[1-(p-nitrobenzenesulfonyl)-1,2,3,5-tetrahydro-4,1-benzoxazepine-3-yl]-9H-purine]
- IC50 ([1]; mean ± SD, read-out: IC50 MCF-7): 350 ± 10 nM
- IC50 ([1]; previously described compounds, introduction, no reference number printed at the values, read-out: IC50 against the MCF-7 cell line): 355 nM
- IC50 (isolated HER2): 27900 nM
- IC50 [2]: 330 nM
- IC50 [3]: 1050 ± 10 nM
- IC50 [4]: 570 ± 20 nM
